Where two headings read alike, the source gives them in different places.
What was measured:
Assay type in all cases: cell-based
HTT mRNA = assay: Splicing assay (RT-qPCR) of HTT mRNA alternative junction (AJ) and canonical junction (CJ)
Procedure, shortened: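 HTT splice switching read as formation of an alternative-exon junction (AJ) versus the canonical junction (CJ) by one-step RT-qPCR on cell lysates, with GAPDH/GUSB housekeeping normalisation in K562 and PPIA in A673. Compounds: 11-point 3-fold series up to 10 uM, ≤0.25% DMSO, 24 h at 37 °C.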

HTT CJ mRNA = assay: Gene panel canonical junction qPCR splicing assay, HTT; conditions: Table 4, read-out: HTT IC50 (decrease in CJ mRNA levels)
Procedure, shortened: (§1)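 A673 or K562 cells treated with compound; canonical-junction mRNA measured by RT-qPCR with junction-spanning primer/probe sets, normalized to GAPDH, GUSB or PPIA and DMSO (2^−ΔΔCt). IC50 for CJ decrease from 4-parameter logistic fit of percentage response.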

SMN2 CJ mRNA = assay: Gene panel canonical junction qPCR splicing assay, SMN2; conditions: Table 4, read-out: SMN2 IC50 (decrease in CJ mRNA levels)
Procedure, shortened: as §1

Target C CJ mRNA = assay: Gene panel canonical junction qPCR splicing assay, Target C; conditions: Table 4, read-out: Target C IC50 (decrease in CJ mRNA levels)
Procedure, shortened: as §1

[1] = decrease in CJ mRNA, A673 or K562 cells, 24 hours, read-out: HTT CJ IC50
[2] = increase in AJ mRNA, A673 or K562 cells, 24 hours, read-out: HTT AJ AC50
[3] = 24 h, read-out: HTT AJ AC50 (nM)
[4] = 24 h, read-out: HTT CJ IC50 (nM)

IC50 (HTT mRNA; [1])	IC50 (HTT CJ mRNA)	IC50 (SMN2 CJ mRNA)	IC50 (Target C CJ mRNA)	SMILES	AC50 (HTT mRNA; [2])	AC50 (HTT mRNA; [3])	IC50 (HTT mRNA; [4])
< 100 nM	< 0.1 µM	< 0.1 µM	< 0.1 µM	Cc1nc2cc(O)c(-c3ccc4nc(N5CCC(NC(C)(C)C)C5)ccc4n3)cc2o1 (centres unmarked) [Compound 175, 6-{6-[3-(tert-butylamino)pyrrolidin-1-yl]-1,5-naphthyridin-2-yl}-2-methyl-1,3-benzoxazol-5-ol]	< 100 nM	–	–
1000 to 10000 nM	1 to 10 µM	1 to 10 µM	1 to 10 µM	COc1cc2nc(C)sc2cc1-c1ccc2nc(N3CCC(NC(C)(C)C)C3)ccc2n1 (centres unmarked) [Compound 176, N-tert-butyl-1-[6-(5-methoxy-2-methyl-1,3-benzothiazol-6-yl)-1,5-naphthyridin-2-yl]pyrrolidin-3-amine]	1000 to 10000 nM	–	–
1000 to 10000 nM	1 to 10 µM	1 to 10 µM	1 to 10 µM	COc1cc2nc(C)oc2cc1-c1ccc2nc(N3CCC(NC(C)(C)C)C3)ccc2n1 (centres unmarked) [Compound 177, N-tert-butyl-1-[6-(5-methoxy-2-methyl-1,3-benzoxazol-6-yl)-1,5-naphthyridin-2-yl]pyrrolidin-3-amine]	1000 to 10000 nM	–	–
100 to 1000 nM	0.1 to 1 µM	< 0.1 µM	1 to 10 µM	Cn1cc2cc(-c3ccc4nc(N5CCC6(CCN6)C5)ccc4n3)c(O)cc2n1 (centres unmarked) [Compound 178, 5-(6-{1,6-diazaspiro[3.4]octan-6-yl}-1,5-naphthyridin-2-yl)-2-methylindazol-6-ol]	100 to 1000 nM	–	–
< 100 nM	< 0.1 µM	< 0.1 µM	0.1 to 1 µM	CCN[C@H]1CCN(c2ccc3nc(-c4cc5cn(C)nc5cc4O)ccc3n2)C1 [Compound 179]	< 100 nM	–	–
< 100 nM	< 0.1 µM	< 0.1 µM	0.1 to 1 µM	CCN[C@@H]1CCN(c2ccc3nc(-c4cc5cn(C)nc5cc4O)ccc3n2)C1 [Compound 180]	100 to 1000 nM	–	–
1000 to 10000 nM	1 to 10 µM	1 to 10 µM	> 10 µM	Cn1cc2cc(-c3ccc4nc(N5CC[C@H](NCC(F)(F)F)C5)ccc4n3)c(O)cc2n1 [Compound 182, 2-methyl-5-{6-[(3S)-3-[(2,2,2-trifluoroethyl)amino]pyrrolidin-1-yl]-1,5-naphthyridin-2-yl}indazol-6-ol]	> 10000 nM	–	–
1000 to 10000 nM	1 to 10 µM	< 0.1 µM	0.1 to 1 µM	Cn1cc2cc(-c3ccc4nc(C5CCNCC5)ccc4n3)ccc2n1 [Compound 184, 2-(2-methylindazol-5-yl)-6-(piperidin-4-yl)-1,5-naphthyridine]	100 to 1000 nM	–	–
1000 to 10000 nM	1 to 10 µM	0.1 to 1 µM	1 to 10 µM	Cn1cc2cc(-c3ccc4nc(C5CCNCC5)ccc4n3)cc(F)c2n1 [Compound 185, 2-(7-fluoro-2-methylindazol-5-yl)-6-(piperidin-4-yl)-1,5-naphthyridine]	1000 to 10000 nM	–	–

Further lines, the compound ahead of its results:

SMILES	IC50 (HTT mRNA; [1])	IC50 (HTT CJ mRNA)	IC50 (SMN2 CJ mRNA)	IC50 (Target C CJ mRNA)	AC50 (HTT mRNA; [2])	AC50 (HTT mRNA; [3])	IC50 (HTT mRNA; [4])
Cn1cc2cc(-c3ccc4nc(OC5CNC5)ccc4n3)c(O)cc2n1 [Compound 159]	1000 to 10000 nM	1 to 10 µM	0.1 to 1 µM	1 to 10 µM	1000 to 10000 nM	–	–
Cn1cc2cc(-c3ccc4nc(N5CC[C@]67CCN[C@H]6CC[C@H]57)ccc4n3)c(O)cc2n1 [Compound 160, 5-{6-[(1R,55,85)-4,9-diazatricyclo[6.3.0.0^{1,5}]undecan-4-yl]-1,5-naphthyridin-2-yl}-2-methylindazol-6-ol]	100 to 1000 nM	0.1 to 1 µM	< 0.1 µM	1 to 10 µM	100 to 1000 nM	–	–
COc1cc2ccncc2cc1-c1ccc2nc(N3CCC(NC(C)(C)C)C3)ccc2n1 (centres unmarked) [Compound 161, N-tert-butyl-1-[6-(6-methoxyisoquinolin-7-yl)-1,5-naphthyridin-2-yl]pyrrolidin-3-amine]	> 10000 nM	> 10 µM	1 to 10 µM	> 10 µM	> 10000 nM	–	–
Cn1cc2cc(-c3ccc4nc(N5CCC56CCNC6)ccc4n3)c(O)cc2n1 (centres unmarked) [Compound 162]	> 10000 nM	> 10 µM	1 to 10 µM	> 10 µM	> 10000 nM	–	–
Cn1cc2cc(-c3ccc4nc(N5CCC56CCCNC6)ccc4n3)c(O)cc2n1 (centres unmarked) [Compound 163]	> 10000 nM	> 10 µM	0.1 to 1 µM	> 10 µM	> 10000 nM	–	–
Cn1cc2cc(-c3ccc4nc(N5CCC56CCNCC6)ccc4n3)c(O)cc2n1 [Compound 164]	100 to 1000 nM	0.1 to 1 µM	0.1 to 1 µM	0.1 to 1 µM	100 to 1000 nM	–	–
Cn1cc2cc(-c3ccc4nc(N5CC(NC(C)(C)C)C5)ccc4n3)c(O)cc2n1 [Compound 165]	1000 to 10000 nM	1 to 10 µM	1 to 10 µM	1 to 10 µM	1000 to 10000 nM	–	–
CC(C)(C)NC1CCN(c2ccc3nc(-c4cc5cnccc5cc4O)ccc3n2)C1 (centres unmarked) [Compound 166, 7-{6-[3-(tert-butylamino)pyrrolidin-1-yl]-1,5-naphthyridin-2-yl}isoquinolin-6-ol]	> 10000 nM	> 10 µM	> 10 µM	> 10 µM	> 10000 nM	–	–
Cn1cnc2cc(-c3ccc4nc(N5CCC(NC(C)(C)C)C5)ccc4n3)c(O)cc2c1=O (centres unmarked) [Compound 167, 7-{6-[3-(tert-butylamino)pyrrolidin-1-yl]-1,5-naphthyridin-2-yl}-6-hydroxy-3-methylquinazolin-4-one]	> 10000 nM	> 10 µM	> 10 µM	> 10 µM	> 10000 nM	–	–
COc1cc2c(=O)n(C)cnc2cc1-c1ccc2nc(N3CCC(NC(C)(C)C)C3)ccc2n1 (centres unmarked) [Compound 168, 7-{6-[3-(tert-butylamino)pyrrolidin-1-yl]-1,5-naphthyridin-2-yl}-6-methoxy-3-methylquinazolin-4-one]	> 10000 nM	> 10 µM	> 10 µM	> 10 µM	> 10000 nM	–	–
CN[C@H]1CCN(c2ccc3nc(-c4cc5cn(C)nc5cc4O)ccc3n2)C1 [Compound 170, 2-methyl-5-{6-[(3S)-3-(methylamino)pyrrolidin-1-yl]-1,5-naphthyridin-2-yl}indazol-6-ol]	< 100 nM	< 0.1 µM	< 0.1 µM	0.1 to 1 µM	100 to 1000 nM	–	–
CC(C)N[C@H]1CCN(c2ccc3nc(-c4cc5cn(C)nc5cc4O)ccc3n2)C1 [Compound 171]	–	< 0.1 µM	< 0.1 µM	0.1 to 1 µM	–	< 100 nM	< 100 nM
CN[C@@H]1CCN(c2ccc3nc(-c4cc5cn(C)nc5cc4O)ccc3n2)C1 [Compound 172]	< 100 nM	< 0.1 µM	< 0.1 µM	0.1 to 1 µM	100 to 1000 nM	–	–
CC(C)N[C@@H]1CCN(c2ccc3nc(-c4cc5cn(C)nc5cc4O)ccc3n2)C1 [Compound 173]	< 100 nM	< 0.1 µM	< 0.1 µM	< 0.1 µM	< 100 nM	–	–
Cc1cc(=O)c2cc(O)c(-c3ccc4nc(N5CCC(NC(C)(C)C)C5)ccc4n3)cc2o1 (centres unmarked) [Compound 174]	> 10000 nM	> 10 µM	> 10 µM	> 10 µM	> 10000 nM	–	–
Cc1cn2nc(-c3ccc4nc(N5CCC(NC(C)(C)C)C5)ccc4n3)cc(C)c2n1 (centres unmarked) [Compound 186, N-tert-butyl-1-(6-{2,8-dimethylimidazo[1,2-b]pyridazin-6-yl}-1,5-naphthyridin-2-yl)pyrrolidin-3-amine]	–	< 0.1 µM	< 0.1 µM	< 0.1 µM	–	< 100 nM	< 100 nM

— patent US20240002375A1, “2-(INDAZOL-5-YL)-6-(PIPERIDIN-4-YL)-1,7-NAPHTHYRIDINE DERIVATIVES AND RELATED COMPOUNDS AS MODULATORS FOR SPLICING NUCLEIC ACIDS AND FOR THE TRE” (REMIX THERAPEUTICS INC., priority 2020, published 2024)
